The values that follow come from ChEMBL document CHEMBL5252559, “Altersteroids A-D, 9,11-Secosteroid-Derived γ-Lactones from an Alternaria sp” (J Nat Prod, 2023).

In experiment [1] the test system is HCT-116. Kind of experiment: Cytotoxicity against human HCT-116 cells assessed as inhibition of cell growth incubated for 72 hrs by MTT assay. The note with it: HCT-116, 72 h. Format: functional, cell-based. For orientation: Tetrazolium dyes change colour on reduction, which living cells bring about.
The subject of experiment [2] is A549. Kind of experiment: Induction of apoptosis in human A549 cells assessed as caspase 3/7 positive cells at 100 uM incubated for 48 hrs by […] staining and caspase 3/7 reagent based analysis relative to control. The format is functional.
For experiment [3], the system named is A549. Kind of experiment: Induction of apoptosis in human A549 cells assessed as caspase 3/7 positive cells at 31.6 uM incubated for 48 hrs by […] staining and caspase 3/7 reagent based analysis relative to control. Format: functional.
The nature of experiment [4]: Induction of caspase3/7-mediated apoptosis in human A549 cells assessed as increase in mean fluorescence intensity at 10 to 100 uM incubated for 48 hrs. The format is functional. The note with it: dose 10-100 µM.
Experiment [5] can be described thus: Cytotoxicity against cisplatin-sensitive mouse MB49 cells assessed as inhibition of cell growth incubated for 72 hrs by MTT assay. The note with it: MB49, 72 h. The format is functional, cell-based.
Experiment [6] relates to A549. Briefly: Cytotoxicity against human A549 cells assessed as inhibition of cell growth incubated for 72 hrs by MTT assay. Format: functional, cell-based. The note with it: A549, 72 h.
A short description of experiment [7]: Cytotoxicity against cisplatin-resistant mouse MB49 cells assessed as inhibition of cell growth incubated for 72 hrs by MTT assay. The note with it: MB49, 72 h. The format is functional, cell-based.

As to `CC(C)[C@@H](C)/C=C/[C@@H](C)[C@H]1CC[C@]2(C3=C[C@H](O)C4=C[C@@H](O)CC[C@]4(C)C3=O)OC(=O)C[C@]12C`, the IC50 (commonly the concentration needed to halve the response being measured) worked out at 4.8 µM in experiment [1], 12.7 µM in experiment [5], 5.3 µM in experiment [6] and 12.7 µM in experiment [7]. Besides, the results for the Activity in experiment [2], in experiment [3] and in experiment [4] were 81.9%, 21.1% and 2000, respectively.

`CC(C)[C@@H](C)/C=C/[C@@H](C)[C@H]1CC[C@]2(C3=CC(=O)[C@@H]4C[C@H](O)CC[C@]4(C)C3=O)OC(=O)C[C@]12C`: the IC50 in experiment [1] is 57.8 µM; in experiment [5] it was over 100 µM; in experiment [6] it was over 100 µM; in experiment [7] it was over 100 µM.

Consider `CC(C)[C@@H](C)/C=C/[C@@H](C)[C@H]1CC[C@]2(C3=CC(=O)C4=CC(=O)CC[C@]4(C)C3=O)OC(=O)C[C@]12C`, for which the IC50 is 45 µM in experiment [1], 53.6 µM in experiment [5], 54.3 µM in experiment [6] and 54.3 µM in experiment [7].

For the molecule `CC(C)[C@@H](C)/C=C/[C@@H](C)[C@H]1CC[C@]2(C3=C[C@H](O)[C@@H]4C[C@H](O)CC[C@]4(C)C3=O)OC(=O)C[C@]12C`, the IC50 in experiment [1] turned out to be 14.6 µM; in experiment [5] it was 34.1 µM; in experiment [6], 19.7 µM; in experiment [7], 14.2 µM.
